The results in this text go back to article doi:10.1101/2024.08.19.608619, “Discovery of potent SARS-CoV-2 nsp3 macrodomain inhibitors uncovers lack of translation to cellular antiviral response” (bioRxiv, 2024).

Read-outs that look alike come from different tables or passages of the source.

Test [1] concerns the target T1, SARS-CoV-2 nsp3-mac1 (Severe acute respiratory syndrome coronavirus 2, UniProt P0DTD1). As to the kind of experiment: biochemical. More on the design: SARS-CoV-2 nsp3 macrodomain TR-FRET single point, per cent inhibition, n=2.
The target in test [2] is T1, SARS-CoV-2 nsp3-mac1. As to the kind of experiment: biochemical. It is filed as biochemical. The note with it: SARS-CoV-2 nsp3 macrodomain TR-FRET single point.
[3] abbreviates: read-out: perc_inhibition_mean, batch_name=ASAP-0000417-001.
Setting [4] is: read-out: perc_inhibition_mean, batch_name=ASAP-0000305-001.
The mark [5] stands for this setting: read-out: perc_inhibition_mean, batch_name=ASAP-0000423-001.
Setting [6] is: read-out: perc_inhibition_mean, batch_name=ASAP-0000251-001.
The mark [7] stands for this setting: read-out: perc_inhibition_mean, batch_name=ASAP-0000333-001.
[8] abbreviates: read-out: perc_inhibition_mean, batch_name=ASAP-0000384-001.
Where [9] appears, read: read-out: perc_inhibition_mean, batch_name=ASAP-0000388-001.
Where [10] appears, read: read-out: perc_inhibition_mean, batch_name=ASAP-0000327-001.
Setting [11] is: read-out: perc_inhibition_mean, batch_name=ASAP-0000404-001.
Where [12] appears, read: read-out: perc_inhibition_mean, batch_name=ASAP-0000321-001.

Consider `O=C(CCN(Cc1cccc(Cl)c1)C(=O)[C@@H]1C[C@@H](O)CN1)N1CCNCC1` [ASAP-0000417], for which, at SARS-CoV-2 nsp3-mac1 [1] (setting [3]), the inhibition at 49.75 µM is -3.54% and the inhibition at 99.5 µM turned out to be 4.74%. For the same molecule, the perc_inhibition_mean at SARS-CoV-2 nsp3-mac1 [2] (concentration 49.75 uM) was -3.538%. In addition, the perc_inhibition_mean on SARS-CoV-2 nsp3-mac1 [2] (concentration 99.5 uM) is on record as 4.743%.
With `O=C(O)[C@H]1CCCCCN1C(=O)c1ncnc2[nH]ccc12` [ASAP-0000072], the inhibition at 50 µM on SARS-CoV-2 nsp3-mac1 [1] (read-out: perc_inhibition_mean, batch_name=ASAP-0000072-001) was 11.8%. Moreover, the perc_inhibition_mean on SARS-CoV-2 nsp3-mac1 [2] (concentration 50.0 uM) is listed as 11.75%.
For `CC1(C)CNCCN1C(=O)c1ccc(NC(=O)Nc2ccccc2)cc1` [ASAP-0000305], at SARS-CoV-2 nsp3-mac1 [1] (setting [4]), the inhibition at 49.75 µM was determined as 2.24% and the inhibition at 99.5 µM stood at 1.39%. Besides, at SARS-CoV-2 nsp3-mac1 [2] (concentration 49.75 uM, n=2), the perc_inhibition_mean is recorded as 2.242%. For the same molecule, at SARS-CoV-2 nsp3-mac1 [2] (concentration 99.5 uM, n=2), the perc_inhibition_mean was 1.393%.
For the molecule `Cc1c[nH]nc1C(=O)N1CCC(c2ccn3ncc(C(=O)N4CCCCC4)c3c2)CC1` [ASAP-0000423], at SARS-CoV-2 nsp3-mac1 [1] (setting [5]), the inhibition at 49.75 µM was determined as 8.47% and the inhibition at 99.5 µM was determined as 27.4%. Moreover, on SARS-CoV-2 nsp3-mac1 [2] (concentration 49.75 uM), the perc_inhibition_mean is on record as 8.474%. Besides, the perc_inhibition_mean at SARS-CoV-2 nsp3-mac1 [2] (concentration 99.5 uM) amounted to 27.38%.
For the molecule `Cc1nn(C)c(NCc2nc(CO)cs2)c1C#N` [ASAP-0000113], the inhibition at 50 µM at SARS-CoV-2 nsp3-mac1 [1] (read-out: perc_inhibition_mean, batch_name=ASAP-0000113-001) was 2.1%. For the same molecule, the perc_inhibition_mean at SARS-CoV-2 nsp3-mac1 [2] (concentration 50.0 uM) was found to be 2.1%.
`Clc1cnc(N2CCN(c3ncnc4[nH]ccc34)CC2)c(Cl)c1` [ASAP-0000251]: on SARS-CoV-2 nsp3-mac1 [1] (setting [6]), the inhibition at 50 µM is -2% and the inhibition at 100 µM was -6.57%. Besides, the perc_inhibition_mean at SARS-CoV-2 nsp3-mac1 [2] (concentration 50.0 uM) is given as -1.996%. At SARS-CoV-2 nsp3-mac1 [2] (concentration 100.0 uM), the perc_inhibition_mean is -6.565%.
For `Cc1cnc(CCNc2ncnc3[nH]ncc23)c(C)c1` [ASAP-0000013], the inhibition at 50 µM at SARS-CoV-2 nsp3-mac1 [1] (read-out: perc_inhibition_mean, batch_name=ASAP-0000013-001) came out at 4.34%. Besides, on SARS-CoV-2 nsp3-mac1 [2] (concentration 50.0 uM), the perc_inhibition_mean is recorded as 4.342%.
With `Cn1nncc1C(=O)N(CCC(=O)N1CCNCC1)Cc1cccc(Cl)c1` [ASAP-0000333], the inhibition at 49.75 µM on SARS-CoV-2 nsp3-mac1 [1] (setting [7]) stood at 0.447%. Moreover, the inhibition at 99.5 µM on SARS-CoV-2 nsp3-mac1 [1] (setting [7]) was -2.15%. The perc_inhibition_mean on SARS-CoV-2 nsp3-mac1 [2] (concentration 49.75 uM, n=2) is listed as 0.447%; at SARS-CoV-2 nsp3-mac1 [2] (concentration 99.5 uM, n=2), -2.15%.
Take `COc1cc(OC)cc(C(=O)N(CCC(=O)N2CCNCC2)Cc2cccc(Cl)c2)c1` [ASAP-0000111]: the inhibition at 50 µM on SARS-CoV-2 nsp3-mac1 [1] (read-out: perc_inhibition_mean, batch_name=ASAP-0000111-001) is -4.53%. Further, the perc_inhibition_mean on SARS-CoV-2 nsp3-mac1 [2] (concentration 50.0 uM) is on record as -4.529%.
`CC(C)[C@@H](Nc1ncnc2[nH]ccc12)c1nncn1C` [ASAP-0000384]: at SARS-CoV-2 nsp3-mac1 [1] (setting [8]), the inhibition at 49.75 µM came to 4.59% and the inhibition at 99.5 µM was 10.8%. Besides, at SARS-CoV-2 nsp3-mac1 [2] (concentration 49.75 uM), the perc_inhibition_mean is recorded as 4.589%. In addition, on SARS-CoV-2 nsp3-mac1 [2] (concentration 99.5 uM), the perc_inhibition_mean is listed as 10.829%.
For the molecule `Cc1cc(NCc2cnc3c(c2)NC(=O)CO3)cnc1C` [ASAP-0000118], the inhibition at 50 µM at SARS-CoV-2 nsp3-mac1 [1] (read-out: perc_inhibition_mean, batch_name=ASAP-0000118-001) stood at 4.53%. Also, the perc_inhibition_mean at SARS-CoV-2 nsp3-mac1 [2] (concentration 50.0 uM) is given as 4.531%.
With `Cc1cc(N)ncc1C(=O)N1CCC(c2ccn3ncc(C(=O)N4CCCCC4)c3c2)CC1` [ASAP-0000388], at SARS-CoV-2 nsp3-mac1 [1] (setting [9]), the inhibition at 49.75 µM amounted to 19.5% and the inhibition at 99.5 µM was 32.6%. In addition, the perc_inhibition_mean on SARS-CoV-2 nsp3-mac1 [2] (concentration 49.75 uM) was 19.535%. Further, the perc_inhibition_mean at SARS-CoV-2 nsp3-mac1 [2] (concentration 99.5 uM) was 32.615%.
Regarding `Cc1ncc(NCc2ncn(C)c2Cl)cc1C(N)=O` [ASAP-0000103], the inhibition at 50 µM at SARS-CoV-2 nsp3-mac1 [1] (read-out: perc_inhibition_mean, batch_name=ASAP-0000103-001) is 2.41%. Also, the perc_inhibition_mean on SARS-CoV-2 nsp3-mac1 [2] (concentration 50.0 uM) was 2.409%.
For the molecule `Cc1nccc(C(=O)N2CCC(c3ccn4ncc(C(=O)N5CCCCC5)c4c3)CC2)n1` [ASAP-0000327], at SARS-CoV-2 nsp3-mac1 [1] (setting [10]), the inhibition at 49.75 µM is 16.5% and the inhibition at 99.5 µM worked out at 27.4%. The perc_inhibition_mean at SARS-CoV-2 nsp3-mac1 [2] (concentration 49.75 uM, n=2) turned out to be 16.537%. In addition, at SARS-CoV-2 nsp3-mac1 [2] (concentration 99.5 uM, n=2), the perc_inhibition_mean is given as 27.369%.
For `O=C(c1ccccc1)N1CCC(c2ccn3ncc(C(=O)N4CCn5ncnc5C4)c3c2)CC1` [ASAP-0000404], the inhibition at 49.75 µM on SARS-CoV-2 nsp3-mac1 [1] (setting [11]) was -3.77%. Moreover, at SARS-CoV-2 nsp3-mac1 [1] (setting [11]), the inhibition at 99.5 µM is -3.52%. The perc_inhibition_mean on SARS-CoV-2 nsp3-mac1 [2] (concentration 49.75 uM) is reported as -3.769%; on SARS-CoV-2 nsp3-mac1 [2] (concentration 99.5 uM), -3.519%.
As to `Cn1c(C(=O)N(CCC(=O)N2CCNCC2)Cc2cccc(Cl)c2)cnc1O` [ASAP-0000321], on SARS-CoV-2 nsp3-mac1 [1] (setting [12]), the inhibition at 49.75 µM is -4.76% and the inhibition at 99.5 µM was -2.76%. Moreover, on SARS-CoV-2 nsp3-mac1 [2] (concentration 49.75 uM, n=2), the perc_inhibition_mean is recorded as -4.765%. Besides, the perc_inhibition_mean at SARS-CoV-2 nsp3-mac1 [2] (concentration 99.5 uM, n=2) was -2.757%.
